Data from US11937601B2, “Method for treatment of soybean rust” (Globachem NV, priority 2020, dated 2024).

What was measured:
[1] = test system: P. pachyrhizi; assay: Field trial, soybean rust severity and efficacy on naturally infected soybean; format: in vivo, Phakopsora pachyrhizi
Description: (§1) A field trial was conducted to evaluate the effect and efficacy of zoxamide on soybean rust disease on soybean (Glycine max) wherein plants were naturally infected by the disease (P. pachyrhizi). The trial was divided in the following 11 treatments: • TREATMENT 1: One treatment where plants were left untreated and in which natural progression of the disease was observed; • TREATMENT 2: One reference treatment which consisted of chlorothalonil applied in 1.3 kg/ha; • TREATMENT 3: One reference treatment which consisted of treatment with prothioconazole applied in 75 g/ha. • TREATMENT 4: One reference treatment with the mixture of prothioconazole and trifloxystrobin applied in amount of 70 g/ha of prothioconazole and 60 g/ha of trifloxystrobin. • TREATMENT 5: One reference treatment with wherein tebuconazole was applied in amount of 83.3 g/ha; mancozeb in amount of 1000 g/ha and picoxystrobin in amount of 66.6 g/ha. All four reference treatments (TREATMENTS 2-5) are currently available treatments of soybean rust, wherein the mentioned compositions were prepared from commercially available products prepared according to the respective label instructions and sprayed on the plants in amounts mentioned above and in Table 1 and 2. TREATMENTS 6-8: Three treatments wherein zoxamide was applied in different doses of (6) 180 g/ha, (7) 120 g/ha, and (8) 90 g/ha. TREATMENTS 9-11: Three treatments wherein zoxamide was applied together with prothioconazole in the following doses: (9) zoxamide 180 g/ha and prothioconazole 75 g/ha; (10) zoxamide 120 g/ha and prothioconazole 75 g/ha; and (11) zoxamide 90 g/ha and prothioconazole 75 g/ha. Each of the above treatments was applied on a plot of 3 meters by 6 meters in size and was repeated in 4 replicates. Zoxamide compositions used in this trial were prepared from the suspension concentrate containing 240 g/L of zoxamide, diluted with water to predetermined concentration, vegetable oil was added to concentration of 0.25% V/V, and such composition was sprayed on the plants in the predetermined amounts. First application of respective treatments was made when soybean plant reached BBCH growth stages around 60 to 75. Growth stages were defined according to Compendium of Growth Stage Identification Keys for Mono- and Dicotyledonous Plants, Extended BBCH scale, 2nd Edition 1997, ISBN 3-9520749-3-4. For each treatment, two applications of the respective treatment were made with 14 days interval between. Disease spread and defoliation were evaluated by visual estimation of degree of infection on leaves and defoliation. In Table 1 and Table 2, the following terms have the following meaning: % S—severity; % E—efficacy; 0.0%—disease progressed to maximum; 100.0%—no disease symptoms observed.

[2] = test system: P. pachyrhizi; assay: Field trial, defoliation percent of soybean naturally infected by soybean rust; format: in vivo, Phakopsora pachyrhizi
Description: as §1

[3] = 7 days after first application, chlorothalonil 1296 g/ha
[4] = 7 days after second application, chlorothalonil 1296 g/ha
[5] = 14 days after first application, chlorothalonil 1296 g/ha
[6] = 14 days after second application, chlorothalonil 1296 g/ha
[7] = 21 days after second application, chlorothalonil 1296 g/ha
[8] = 28 days after second application, chlorothalonil 1296 g/ha
[9] = 7 days after first application, prothioconazole 75 g/ha
[10] = 7 days after second application, prothioconazole 75 g/ha
[11] = 14 days after first application, prothioconazole 75 g/ha
[12] = 14 days after second application, prothioconazole 75 g/ha
[13] = 21 days after second application, prothioconazole 75 g/ha
[14] = 28 days after second application, prothioconazole 75 g/ha
[15] = 7 days after first application, zoxamide 90 g/ha
[16] = 7 days after first application, zoxamide 120 g/ha
[17] = 7 days after first application, zoxamide 180 g/ha
[18] = 7 days after second application, zoxamide 90 g/ha
[19] = 7 days after second application, zoxamide 120 g/ha
[20] = 7 days after second application, zoxamide 180 g/ha
[21] = 14 days after first application, zoxamide 90 g/ha
[22] = 14 days after first application, zoxamide 120 g/ha
[23] = 14 days after first application, zoxamide 180 g/ha
[24] = 14 days after second application, zoxamide 90 g/ha
[25] = 14 days after second application, zoxamide 120 g/ha
[26] = 14 days after second application, zoxamide 180 g/ha
[27] = 21 days after second application, zoxamide 90 g/ha
[28] = 21 days after second application, zoxamide 120 g/ha
[29] = 21 days after second application, zoxamide 180 g/ha
[30] = 28 days after second application, zoxamide 90 g/ha
[31] = 28 days after second application, zoxamide 120 g/ha
[32] = 28 days after second application, zoxamide 180 g/ha

SMILES: N#Cc1c(Cl)c(Cl)c(Cl)c(C#N)c1Cl [CHLOROTHALONIL, chlorothalonil]
- % E (efficacy) [1, 3]: 100.00%
- % S (severity) [1, 3]: 0.00%
- % E (efficacy) [1, 4]: 76.47%
- % S (severity) [1, 4]: 5.00%
- % E (efficacy) [1, 5]: 66.67%
- % S (severity) [1, 5]: 5.00%
- % E (efficacy) [1, 6]: 76.47%
- % S (severity) [1, 6]: 5.00%
- % E (efficacy) [1, 7]: 68.11%
- % S (severity) [1, 7]: 14.75%
- Defoliation % [2, 7]: 50.00%
- Efficacy % (defoliation) [2, 7]: 38.46%
- Defoliation % [2, 8]: 60.00%
- Efficacy % (defoliation) [2, 8]: 40.00%

SMILES: OC(Cc1ccccc1Cl)(Cn1nc[nH]c1=S)C1(Cl)CC1 (stereo not shown) [PROTHIOCONAZOLE, prothioconazole]
- % E (efficacy) [1, 9]: 100.00%
- % S (severity) [1, 9]: 0.00%
- % E (efficacy) [1, 10]: 85.88%
- % S (severity) [1, 10]: 3.00%
- % E (efficacy) [1, 11]: 100.00%
- % S (severity) [1, 11]: 0.00%
- % E (efficacy) [1, 12]: 85.88%
- % S (severity) [1, 12]: 3.00%
- % E (efficacy) [1, 13]: 62.16%
- % S (severity) [1, 13]: 17.50%
- Defoliation % [2, 13]: 50.00%
- Efficacy % (defoliation) [2, 13]: 38.46%
- Defoliation % [2, 14]: 70.00%
- Efficacy % (defoliation) [2, 14]: 30.00%

SMILES: CCC(C)(NC(=O)c1cc(Cl)c(C)c(Cl)c1)C(=O)CCl (stereo not shown) [ZOXAMIDE, 3,5-dichloro-N-(3-chloro-1-ethyl-1-methyl-2-oxopropyl)-4-methyl benzamide]
- % E (efficacy) [1, 15]: 100.00%
- % S (severity) [1, 15]: 0.00%
- % E (efficacy) [1, 16]: 100.00%
- % S (severity) [1, 16]: 0.00%
- % E (efficacy) [1, 17]: 100.00%
- % S (severity) [1, 17]: 0.00%
- % E (efficacy) [1, 18]: 85.88%
- % S (severity) [1, 18]: 3.00%
- % E (efficacy) [1, 19]: 100.00%
- % S (severity) [1, 19]: 0.00%
- % E (efficacy) [1, 20]: 100.00%
- % S (severity) [1, 20]: 0.00%
- % E (efficacy) [1, 21]: 100.00%
- % S (severity) [1, 21]: 0.00%
- % E (efficacy) [1, 22]: 100.00%
- % S (severity) [1, 22]: 0.00%
- % E (efficacy) [1, 23]: 100.00%
- % S (severity) [1, 23]: 0.00%
- % E (efficacy) [1, 24]: 76.47%
- % S (severity) [1, 24]: 5.00%
- % E (efficacy) [1, 25]: 85.88%
- % S (severity) [1, 25]: 3.00%
- % E (efficacy) [1, 26]: 100.00%
- % S (severity) [1, 26]: 0.00%
- % E (efficacy) [1, 27]: 70.27%
- % S (severity) [1, 27]: 13.75%
- % E (efficacy) [1, 28]: 81.08%
- % S (severity) [1, 28]: 8.75%
- % E (efficacy) [1, 29]: 90.27%
- % S (severity) [1, 29]: 4.50%
- Defoliation % [2, 27]: 52.50%
- Efficacy % (defoliation) [2, 27]: 35.38%
- Defoliation % [2, 28]: 48.75%
- Efficacy % (defoliation) [2, 28]: 40.00%
- Defoliation % [2, 29]: 42.50%
- Efficacy % (defoliation) [2, 29]: 47.69%
- Defoliation % [2, 30]: 70.00%
- Efficacy % (defoliation) [2, 30]: 30.00%
- Defoliation % [2, 31]: 60.00%
- Efficacy % (defoliation) [2, 31]: 40.00%
- Defoliation % [2, 32]: 51.25%
- Efficacy % (defoliation) [2, 32]: 48.75%
